We go through seven compounds from US7261901B2, “Vaccine and compositions for the prevention and treatment of neisserial infections” (University of Iowa Research Foundation, priority 2001, dated 2007).

One series deals with gonococci. Particulars: 1.0, 0.1, or 0.01 percent alcohol, absence of cervical cells (data not shown). On the procedure: Consequently, it was determined if exogenously added PLD substrates could compete with cervical cell constituents for NgPLD activity and in doing so interfere with the role of NgPLD in gonococcal invasion.
The next series has as its system Ectocervical Cells. As to the kind of experiment: Association and invasion (gentimicin-resistance) assays, primary ectocervical (pex) cells. Format: cell-based, human. On the procedure:
(§1) 8. N. gonorrhoeae Attachment to and Invasion of Primary, Human, Cervical Cells. Primary cervical cell monolayers were infected with wild-type or PLD mutant gonococci as outlined above. Variable concentrations of Streptomyces spp. PLD (SsPLD) (Sigma), PMA, or 4-α phorbol were included in association (adherence and invasion) or invasion assays, as noted. Cervical cells were preincubated (30 minutes, 37° C.) with 200 nM PMA or 4-α phorbol before the addition of gonococci. 10 units ml^−1 SsPLD was added simultaneously with gonococci. Alternatively, where noted, cervical cell monolayers were pre-incubated (30 minutes, 37° C.) with pervanadate, which was made by mixing 100 μM ortho-sodium vanadate in 3 mM hydrogen peroxide. In separate assays, infection supernatants were collected from wild-type or PLD mutant-infected cervical cell monolayers, gonococci were removed by filtration through a 0.22 μm syringe filter (i.e., wild-type or mutant primed supernatants) and were added to association and/or invasion assays, as noted. The ability of gonococci to adhere to and/or invade pex and pen cells was quantitatively determined using standard gentimicin-resistance assays, performed as described previously (Edwards et al., 2000), and in which chemical or protein additives were included or excluded from the invasion assay as described above. The total association (i.e., adherence and invasion) of gonococci with pex and pen cells was quantitated by the omission of gentimicin from the above described invasion assay. Percent invasion of N. gonorrhoeae 1291 or 1291ΔPLDin the presence or absence of experimental additives was determined as a function of the original inoculum and the number of colonies formed with subsequent plating of the cellular lysate. A Kruskal-Wallis non-parametric analysis of variance was used to determine the statistical significance of the association and invasion assays described above.
N. gonorrhoeae Attachment to and Invasion of Primary, Human, Cervical Cells. Primary cervical cell monolayers were infected with wild-type or PLD mutant gonococci as outlined above. Variable concentrations of PtC (Sigma), ethanol, 2-butanol, or Streptomyces spp. PLD (SsPLD) (Sigma) were included in association (adherence and invasion) or invasion assays, as noted. PtC, ethanol, 2-butanol, or 10 units ml^−1 SsPLD were added simultaneously with gonococci. In separate assays, infection supernatants were collected from wild-type or PLD mutant-infected cervical cell monolayers, gonococci were removed by filtration through a 0.22 μm syringe filter (to yield primed wild-type or mutant supernatants), which were then added to association and/or invasion assays, as noted. The ability of gonococci to adhere to and/or invade pex and pen cells was quantitatively determined using standard gentimicin-resistance assays, performed as described previously (Edwards et al., 2000) and in which chemical or protein additives were included or excluded from the invasion assay as described above. The total association (i.e., adherence and invasion) of gonococci with pex and pen cells was quantitated by the omission of gentimicin from the above described invasion assay. Percent invasion of N. gonorrhoeae 1291 or 1291ΔPLD in the presence or absence of experimental additives was determined as a function of the original inoculum and the number of colonies formed with subsequent plating of the cellular lysate. Inhibition of gonococcal attachment and/or invasion by exogenous PtC, ethanol, or 2-butanol was determined as a normalized function of the ability of gonococci to attach to and/or invade primary cervical cells in the absence of the competimer inhibitor. A Kruskal-Wallis non-parametric analysis of variance was used to determine the statistical significance of the association and invasion assays described above.

In the next series the test system is primary cervical cells. As to the kind of experiment: Association and invasion assays, primary cervical cells (cell type not specified). Type of series: cell-based, human. Particulars: for effect on gonococcal association, invasion or CR3 cell surface recruitment: negative controls: 200 nM 4-α phorbol, 3 mM hydrogen peroxide; for intracellular survival of PLD mutant gonococci: 100 μM pervanadate or 200 nM PMA. On the procedure: The anti-PLD antibody was screened for specificity to PLD using assays well-known to the art.
as §1

In the next series the test system is Endocervical Cells. The experiment in a line: Association and invasion (gentimicin-resistance) assays, primary endocervical (pen) cells. Format: cell-based, human. The settings on record: 1291 + 100 nM DPG. As for the experimental part:
as §1, with “Alternatively, where noted, cervical cell monolayers were pre-incubated (30 minutes, 37° C.) with pervanadate, which was made by mixing 100 μM ortho-sodium vanadate in 3 mM hydrogen peroxide. In separate assays, infection supernatants were collected from wild-type or PLD mutant-infected cervical cell monolayers, gonococci were removed by filtration through a 0.22 μm syringe filter (i.e., wild-type or mutant primed supernatants) and were added to association and/or invasion assays, as noted.” left out, “A Kruskal-Wallis non-parametric analysis of variance was used to determine the statistical significance of the association and invasion assays described above.” left out

Another series concerns PLD. The experiment in a line: PLD activity (Amplex Red Phospholipase D Assay Kit) in gonococci, infected cervical cell lysates, fractions and supernatants. Format: biochemical, N. gonorrhoeae. On the procedure:
(§2) 4. Determination of PLD Activity. PLD activity was accessed using the Amplex™ Red Phospholipase D Assay Kit (Molecular Probes, Eugene Oreg.). Wild-type and PLD mutant gonococci were suspended in PLD assay buffer to a final concentration of 10^7 bacteria ml^−1, and activity was determined according to the manufacturer's protocol. Assessment of PLD activity at acidic pH was determined in a two-step assay according to the manufacturer's protocol. For the first step, 10^8 gonococci were suspended in PBS with the pH adjusted to 3.0, 4.5, or 6.0. Gonococcal suspensions were diluted 10-fold in PLD assay buffer for the second step of the reaction. Cervical cell fractions were prepared as outlined below and PLD activity was assessed at neutral pH according to the manufacturer's protocol.
5. Fractionation of Primary Cervical Cells. Uninfected (control) and infected cervical cell monolayers were lysed in buffer A (50 mM tris, pH 7.5; 10 mM NaCl, 1 mM KCl; 2 mM MgCl2, 1 mM PMSF) by scraping cervical cells from tissue culture dishes placed on ice. The cell lysate was sonicated (two bursts of 20 seconds each). Cell debris and the nuclear fraction was removed by centrifugation (750×g, 10 minutes), and the supernatant from this spin was then subjected to filtration through a low-protein binding 0.22 μm syringe filter to ensure removal of gonococci. Alternatively, gonococci were removed by immunoprecipitation (as described by Wen et al., 2000) using the monoclonal antibody, 2C3, which recognizes the H.8 outer membrane protein of the pathogenic Neisseria. Sucrose was added to the resulting gonococcus-depleted supernatant (S1) to a final concentration of 300 mM. Ultracentrifugation (150,000×g, 90 minutes) was then performed to produce the plasma membrane-(pellet) and cytosol (supernatant 2, S2)-enriched fractions. The membrane-enriched fraction was resuspended in PLD assay buffer (50 mM Tris, 5 mM CaCl2, pH 8.0). S2 was concentrated by filtration through Centricon YM-30 centrifugal filter units (Millipore) after which cytosolic constituents were recovered in PLD assay buffer. Where indicated, prior to infection studies primary pex and pen cell monolayers were treated with 300 nM wortmannin (Sigma) (2 hours, 37° C.) or 1 μM cytochalasin D (Sigma) (30 minutes, 37° C.) to inhibit macropinocytosis of gonococci. Wortmannin and cytochalasin D were maintained in cervical cell cultures during the course of infection.
as §2, with “Determination of” for “4. Determination of”, “Assessment of gonococcal PLD activity” for “Assessment of PLD activity”
Fractionation of Primary Cervical Cells. Uninfected (control) and infected cervical cell monolayers were lysed in buffer A (50 mM tris, pH 7.5; 10 mM NaCl, 1 mM KCl; 2 mM MgCl2, 1 mM PMSF) by scraping cervical cells from tissue culture dishes placed on ice. The cell lysate was sonicated (two bursts of 20 seconds each). […] Sucrose was added to the resulting gonococcus-depleted supernatant (S1) to a final concentration of 300 mM. Ultracentrifugation (150,000×g, 90 minutes) was then performed to produce the plasma membrane-(pellet) and cytosol (supernatant 2, S2)-enriched fractions. The membrane-enriched fraction was resuspended in PLD assay buffer (50 mM Tris, 5 mM CaCl2, pH 8.0). […]

The subject of the next series is CR3. As to the kind of experiment: CR3 surface expression on primary cervical cells (ELISA with H5A4). Format: cell-based, human. The settings on record: for CR3 recruitment to the cervical cell surface: PLD mutant infected cells, 100 μM pervanadate or 200 nM PMA; for CR3 surface level expression: uninfected cervical cells. On the procedure: As described hereinbelow, primary cervical cells were seeded in 96-well microtiter plates to comparatively quantitate surface level expression of CR3. In the procedure, cells were (i) uninfected; (ii) challenged with wild-type gonococci; (iii) challenged with PLD-mutant gonococci; and/or (iv) challenged with filtered, primed (see infra) wild-type or PLD-mutant gonococcal supernatants. After removal of the infection supernatant, cell monolayers were rinsed, fixed and subsequently labeled with an antibody (anti-CD11b antibody H5A4; Hildreth and August, 1985) specific for the CR3 I-domain subunit followed by an HRP antibody-conjugate (commercially available from Kirkegaard & Perry Laboratories, Gaithersburg, Md.) using standard ELISA protocols. Absorbance of the o-phenylenediamine dihydrochloride peroxidase substrate was determined spectrophotometrically at 490 nm (FIG. 15).
7. Determination of CR3 Surface Expression on Primary Cervical Cells. Pex and pen cells were passed to 96-well microtiter plates and allowed to grow to confluence. Cervical cells were then challenged with wild-type or PLD mutant gonococci after which the infection medium was removed and cells were rinsed thrice with PBS. Cells were fixed with 2% paraformaldehyde. Prior to immuno-analysis of CR3 surface level expression, cells were again rinsed with PBS. Immunoassays were then performed according to standard ELISA protocols using the H5A4 anti-CD11b (i.e., CR3) primary and peroxidase-conjugated secondary antibodies. Absorbance of the o-phenylenediamine dihydrochloride peroxidase substrate was determined spectrophotometrically at 490 nm. Primary antibody was omitted from one well, and the secondary antibody was omitted from a second well, which served as a control for endogenous peroxidase activity. Where indicated 200 nM phorbol myristate (PMA), 200 nM 4-α phorbol, 100 μM pervanadate, 3 mM hydrogen peroxide, or gonococci-depleted supernatants collected from wild-type or PLD mutant infection studies were included in the infection studies as outlined below.
Determination of CR3 Surface Expression on Primary Cervical Cells. Pex and pen cells were passed to 96-well microtiter plates and allowed to grow to confluence. Cervical cells were then challenged with wild-type or PLD mutant gonococci after which the infection medium was removed and cells were rinsed thrice with PBS. Cells were fixed with 2% paraformaldehyde. Prior to immuno-analysis of CR3 surface level expression, cells were again rinsed with PBS. Immunoassays were then performed according to standard ELISA protocols using the H5A4 anti-CD11b (i.e., CR3) primary and peroxidase-conjugated secondary antibodies. Absorbance of the o-phenylenediamine dihydrochloride peroxidase substrate was determined spectrophotometrically at 495 nm. […]
In general terms: In an ELISA, binding on a coated surface is turned into a signal by an enzyme label.

The mark [1] stands for this setting: 1291 WT, alcohol competimer 0.01 %.
Setting [2] is: 1291 WT, alcohol competimer 0.1 %.
Setting [3] is: 1291 WT, alcohol competimer 1.0 %.
[4] abbreviates: Ectocervical Cells, 1291 + 100 nM DPG.

`CCC(C)O` (stereo not shown) [2-Butanol, 2-butanol]: the “survival of gonococci” value in the series on gonococci is recorded as “no significant difference in survival”. Besides, the “Invasion (%)” value in the series with Ectocervical Cells (setting [1]) is 2.8661 (0.53) %; in the series on Ectocervical Cells (setting [2]) it was 2.7087 (0.47) %; with Ectocervical Cells (setting [3]) it was 2.6869 (0.47) %; in the series with Ectocervical Cells (1291ΔPLD, alcohol competimer 0.01 %), 0.2819 (0.02) %; in the series with Ectocervical Cells (1291ΔPLD, alcohol competimer 0.1 %), 0.3172 (0.03) %; in the series with Ectocervical Cells (1291ΔPLD, alcohol competimer 1.0 %), 0.2960 (0.05) %.

For the compound `CC1=C[C@H]2[C@@]3(O)[C@H](C)[C@@H](O)[C@]4(O)[C@H]([C@@H]3C=C(CO)C[C@@]2(O)C1=O)C4(C)C` [4-α-phorbol], the “effect on gonococcal association, invasion or CR3 cell surface recruitment” value in the series with primary cervical cells is recorded as “had no affect”.

Regarding `O=C(O)C(COP(=O)(O)O)OP(=O)(O)O` (stereo not shown) [DPG, 2,3-diphosphoglycerate], the “effect on PLD activity, association and invasion of cervical cells by gonococci” value in the series on primary cervical cells was “inhibits gonococcal association and invasion”. Also, in the series on Endocervical Cells, the “Association, Mean” value was found to be 6.97 and the “Invasion, Mean” value came out at 0.21. Further, in the series on Ectocervical Cells (setting [4]), the “Association, Mean” value was 15.31 and the “Invasion, Mean” value came out at 0.36.

On to `CCO` [Ethanol, ethanol], for which the “survival of gonococci” value in the series on gonococci is given as “no significant difference in survival”. Also, the “Inhibition (%)” value in the series with Ectocervical Cells (setting [1]) is given as 74.9582 (0.87) %; in the series with Ectocervical Cells (setting [2]), 80.9243 (1.41) %; in the series with Ectocervical Cells (1291 WT, alcohol competimer 1.0 %, variance in parentheses) it was 90.7346 (0.92) %. The “Invasion (%)” value in the series on Ectocervical Cells (setting [1]) was 0.6957 (0.02) %; with Ectocervical Cells (setting [2]) it was 0.5288 (0.01) %; in the series with Ectocervical Cells (setting [3]), 0.2564 (0.01) %.

As for `OO` [H2O2, hydrogen peroxide], the “effect on gonococcal association, invasion or CR3 cell surface recruitment” value in the series on primary cervical cells was “No effect was observed”. Further, in the series with PLD (No cervical cells), the “PLD activity (Table 3, untitled)” value came out at 0.961. In addition, the “Mean PLD activity, No Cells” value in the series on PLD (gonococci alone and assay control (Table 7B, C)) is listed as 0.885. In addition, the “PLD activity, Assay Controls (Table 4C)” value with PLD (positive control) was 0.781. Besides, the “PLD activity, Assay Controls, mean” value in the series on PLD (positive control (Table 8A)) is reported as 1.557.

As to `CCCCCCCCCCCCCC(=O)O[C@@H]1[C@@H](C)[C@@]2(O)[C@@H](C=C(CO)C[C@]3(O)C(=O)C(C)=C[C@@H]23)[C@@H]2C(C)(C)[C@]12OC(C)=O` [PMA, phorbol myristate], in the series on CR3, the “CR3 recruitment to the cervical cell surface” value is listed as “rescued CR3 recruitment” and the “CR3 surface level expression” value is “increased CR3 surface level expression”. Further, in the series on primary cervical cells, the “intracellular survival of PLD mutant gonococci” value was “partially restored intracellular survival”.

As for pervanadate, in the series on CR3, the “CR3 recruitment to the cervical cell surface” value was “rescues CR3 recruitment” and the “CR3 surface level expression” value is given as “does not stimulate CR3 surface recruitment”. In addition, the “intracellular survival of PLD mutant gonococci” value with primary cervical cells was “not sufficient to allow the intracellular survival”.
